The values that follow come from patent publication US20230159510A1, “NOVEL PRMT5 INHIBITORS” (AMGEN INC., priority 2020, published 2023).

The subject of one assay is HCT116 WT cells. Briefly: HCT116 proliferation assay, WT cells (CellTiter-Glo, 6 days). The assay is classed as cell-based. The following applies: read-out: Prolif_HCT116-WT IC50. In outline: (§1)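 Compound titrations (top dose 1 or 10 µM, 1:3 dilution, 8 or 9 concentrations) and a DMSO control were applied to cells cultured overnight beforehand in RPMI 1640 with 10% FBS at 37° C, 5% CO2; viability was scored from luminescence.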
(ATP-based viability assays read luminescence as a measure of living cells.)

A further assay deals with HCT116 MTAP null cells. Briefly: HCT116 proliferation assay, MTAP null cells (CellTiter-Glo, 6 days). The class given is cell-based. The following applies: read-out: Protif_ HCT116-MTAP null IC50. The method in brief:
as §1

The term IC50 denotes the point on the concentration scale where inhibition reaches its midpoint.

Like-named read-outs stand apart in the source and are kept apart here.

Consider `CO[C@@H]1COCC[C@H]1N(Cc1ccc(C(F)(F)F)cn1)C(=O)c1ccc2nc(N)c(C)cc2c1` (mixture of isomers) [Example 748, 2-amino-N-((3R,4S)-3-methoxytetrahydro-2H-pyran-4-yl)-3-methyl-N-((5-(trifluoromethyl)-2-pyridinyl)methyl)-6-quinolinecarboxamide and 2-amino-N-((3S,4R)-3-methoxytetrahydro-2H-pyran-4-yl)-3-methyl-N-((5-(trifluoromethyl)-2-pyridinyl)methyl)-6-quinolinecarboxamide], for which the IC50 came to 2620 nM in the assay on HCT116 WT cells and 84 nM with HCT116 MTAP null cells.

On to `Nc1nc2ccc(C(=O)N(Cc3ccc(C(F)(F)F)cn3)C3CCOC3C3CC3)cc2cc1Br` (centres unmarked) [Example 832, 2-amino-3-bromo-N-(2-cyclopropyltetrahydrofuran-3-yl)-N-((5-(trifluoromethyl)pyridin-2-yl)methyl)quinoline-6-carboxamide], for which the IC50 with HCT116 WT cells (Homo sapiens, HCT-116, 144 h) was above 10000 nM; in the assay with HCT116 MTAP null cells (HCT116-MTAP null, 144 h), 380 nM.

Consider `CC(C)CN(Cc1ccc(C(F)(F)F)cn1)C(=O)c1ccc2nc(N)c(-c3ccccc3)cc2c1` [Example 834, 2-Amino-N-(2-methylpropyl)-3-phenyl-N-((5-(trifluoromethyl)-2-pyridinyl)methyl)-6-quinolinecarboxamide], for which the IC50 in the assay on HCT116 WT cells (Homo sapiens, HCT-116, 144 h) was 3190 nM; with HCT116 MTAP null cells (HCT116-MTAP null, 144 h) it was 523 nM.

Take `Cc1cc2cc(C(=O)N(Cc3ccc(C#N)nn3)[C@H](C)c3ncccc3F)ccc2nc1N` [Example 728, 2-amino-N-((6-cyano-3-pyridazinyl)methyl)-N-((1R)-1-(3-fluoro-2-pyridinyl)ethyl)-3-methyl-6-quinolinecarboxamide]: the IC50 stood at 6810 nM in the assay on HCT116 WT cells (Homo sapiens, HCT-116, 144 h) and 264 nM with HCT116 MTAP null cells (HCT116-MTAP null, 144 h).

Turning to `Cc1cc2cc(C(=O)N(Cc3ccc(C(F)(F)F)nn3)[C@@H]3CCCn4ccnc43)ccc2nc1N` (single isomer, unassigned) [Example 813], the IC50 with HCT116 WT cells (Homo sapiens, HCT-116, 144 h) came out at 2630 nM; with HCT116 MTAP null cells (HCT116-MTAP null, 144 h), 98 nM.

Take `CC1COCCC1N(Cc1ccc(C(F)(F)F)cn1)C(=O)c1ccc2nc(N)c(Br)cc2c1` (centres unmarked) [Example 830, 2-amino-3-bromo-N-(3-methyltetrahydro-2H-pyran-4-yl)-N-((5-(trifluoromethyl)pyridin-2-yl)methyl)quinoline-6-carboxamide]: the IC50 in the assay with HCT116 WT cells (Homo sapiens, HCT-116, 144 h) is above 10000 nM; in the assay with HCT116 MTAP null cells (HCT116-MTAP null, 144 h), 380 nM.

Consider `C[C@H](c1ncccn1)N(Cc1cc2c(cn1)OCCC2)C(=O)c1ccc2nc(N)c(I)cc2c1` (single isomer, unassigned) [Example 836], for which the IC50 in the assay with HCT116 WT cells (Homo sapiens, HCT-116, 144 h) is above 10000 nM; in the assay with HCT116 MTAP null cells (HCT116-MTAP null, 144 h) it was 129 nM.

Regarding `Cc1cc2cc(C(=O)N(Cc3ccc(N4CCC(C(N)=O)CC4)cc3)Cc3ccnc4[nH]ccc34)ccc2nc1N` [Example 573, N-((1H-pyrrolo[2,3-b]pyridin-4-yl)methyl)-2-amino-N-(4-(4-carbamoylpiperidin-1-yl)benzyl)-3-methylquinoline-6-carboxamide], the IC50 in the assay with HCT116 WT cells (Homo sapiens, HCT-116, 144 h) was above 1000 nM; in the assay on HCT116 MTAP null cells (HCT116-MTAP null, 144 h) it was 760 nM.

Consider `Cc1cc2cc(C(=O)N(Cc3ccc(C(F)(F)F)cn3)C(C)C3CCOCC3)ccc2nc1N` (centres unmarked) [Example 675, 2-amino-3-methyl-N-(1-tetrahydropyran-4-ylethyl)-N-[[5-(trifluoromethyl)-2-pyridyl]methyl] quinoline-6-carboxamide], for which the IC50 with HCT116 WT cells (Homo sapiens, HCT-116, 144 h) was above 1000 nM; in the assay on HCT116 MTAP null cells (HCT116-MTAP null, 144 h), 232 nM.

Consider `[2H]C([2H])([2H])c1cc2cc(C(=O)N(Cc3ccc(C(F)(F)F)cn3)CC(C)C)ccc2nc1N` [Example 398, 2-amino-N-isobutyl-3-(methyl-d3)-N-((5-(trifluoromethyl)pyridin-2-yl)methyl)quinoline-6-carboxamide], for which the concentration for half-maximal inhibition (IC50) in the assay on HCT116 WT cells (Homo sapiens, HCT-116, 144 h) came out at 4780 nM; in the assay with HCT116 MTAP null cells (144 h) it was 247 nM.

`C[C@H](c1ncccn1)N(Cc1ccc(Br)nn1)C(=O)c1ccc2nc(N)c(I)cc2c1` [Example 767, (R)-2-amino-N-((6-bromopyridazin-3-yl)methyl)-3-iodo-N-(1-(pyrimidin-2-yl)ethyl)quinoline-6-carboxamide]: the IC50 with HCT116 WT cells (Homo sapiens, HCT-116, 144 h) turned out to be 3550 nM; in the assay with HCT116 MTAP null cells (HCT116-MTAP null, 144 h), 56 nM.

Take `Cc1cc2cc(C(=O)N(Cc3ccc(C(F)(F)F)cn3)C(C)c3ncon3)ccc2nc1N` (centres unmarked) [Example 795, N-(1-(1,2,4-oxadiazol-3-yl)ethyl)-2-amino-3-methyl-N-((5-(trifluoromethyl)pyridin-2-yl)methyl)quinoline-6-carboxamide]: the 50% inhibitory concentration (IC50) in the assay on HCT116 WT cells (Homo sapiens, HCT-116, 144 h) came out at 1390 nM; with HCT116 MTAP null cells (HCT116-MTAP null, 144 h) it was 56 nM.

As for `C[C@H](c1ncccc1F)N(Cc1ccc(C(F)(F)F)nn1)C(=O)c1ccc2nc(N)c(Br)cc2c1` [Example 737, 2-amino-3-bromo-N-((1R)-1-(3-fluoro-2-pyridinyl)ethyl)-N-((6-(trifluoromethyl)-3-pyridazinyl)methyl)-6-quinolinecarboxamide], the IC50 stood at 6800 nM in the assay with HCT116 WT cells (Homo sapiens, HCT-116, 144 h) and 148 nM with HCT116 MTAP null cells (HCT116-MTAP null, 144 h).

As for `Cc1cc2cc(C(=O)N(CCOC(F)(F)F)Cc3ccc(C(F)(F)F)cn3)ccc2nc1N` [Example 734, 2-amino-3-methyl-N-(2-(trifluoromethoxy)ethyl)-N-((5-(trifluoromethyl)-2-pyridinyl)methyl)-6-quinolinecarboxamide], the IC50 is above 10000 nM with HCT116 WT cells (Homo sapiens, HCT-116, 144 h) and 994 nM in the assay with HCT116 MTAP null cells (HCT116-MTAP null, 144 h).

In the case of `Cc1cc2cc(C(=O)N(Cc3ccc(C(F)(F)F)cn3)[C@H](C)c3cccc(F)n3)ccc2nc1N` [Example 799, (R)-2-amino-N-(1-(6-fluoropyridin-2-yl)ethyl)-3-methyl-N-((5-(trifluoromethyl)pyridin-2-yl)methyl)quinoline-6-carboxamide], the concentration for half-maximal inhibition (IC50) came to 301 nM in the assay with HCT116 WT cells (Homo sapiens, HCT-116, 144 h) and 13 nM in the assay on HCT116 MTAP null cells (HCT116-MTAP null, 144 h).

As to `Cc1cc2cc(C(=O)N(Cc3ccc(Br)nn3)[C@@H]3CCCn4ncnc43)c(F)cc2nc1N` [Example 757, (R)-2-amino-N-((6-bromopyridazin-3-yl)methyl)-7-fluoro-3-methyl-N-(5,6,7,8-tetrahydro-[1,2,4]triazolo[1,5-a]pyridin-8-yl)quinoline-6-carboxamide], the IC50 is 8870 nM in the assay with HCT116 WT cells (Homo sapiens, HCT-116, 144 h) and 313 nM with HCT116 MTAP null cells (HCT116-MTAP null, 144 h).

As to `C[C@H](c1ncccn1)N(Cc1ccc(C(F)(F)F)cn1)C(=O)c1cnc2nc(N)c(I)cc2c1` [Example 838, (R)-7-amino-6-iodo-N-(1-(pyrimidin-2-yl)ethyl)-N-((5-(trifluoromethyl)pyridin-2-yl)methyl)-1,8-naphthyridine-3-carboxamide], the half-inhibitory concentration (IC50) in the assay on HCT116 WT cells (Homo sapiens, HCT-116, 144 h) came out at 1650 nM; in the assay with HCT116 MTAP null cells (HCT116-MTAP null, 144 h), 56 nM.

As for `Cc1cc2cc(C(=O)N(Cc3ccc(N4CCC(C(N)=O)CC4)cc3)CC(C)C3CC3)ccc2nc1N` (centres unmarked) [Example 571, 2-amino-N-(4-(4-carbamoylpiperidin-1-yl)benzyl)-N-(2-cyclopropylpropyl)-3-methylquinoline-6-carboxamide], the IC50 was above 1000 nM in the assay on HCT116 WT cells (Homo sapiens, HCT-116, 144 h) and 202 nM in the assay on HCT116 MTAP null cells (HCT116-MTAP null, 144 h).

Consider `N#Cc1ccc(CN(C(=O)c2ccc3nc(N)c(Br)cc3c2)C2CCCC2C#N)nc1` (centres unmarked) [Example 827, 2-amino-3-bromo-N-(2-cyanocyclopentyl)-N-((5-cyanopyridin-2-yl)methyl)quinoline-6-carboxamide], for which the IC50 is above 1000 nM in the assay on HCT116 WT cells (Homo sapiens, HCT-116, 144 h) and 880 nM in the assay with HCT116 MTAP null cells (HCT116-MTAP null, 144 h).

`Cc1cc2cc(C(=O)N(Cc3ccc(Cl)nn3)[C@H](C)c3ncccn3)ccc2nc1N` (single isomer, unassigned) [Example 819]: the half-inhibitory concentration (IC50) with HCT116 WT cells (Homo sapiens, HCT-116, 144 h) was found to be 543 nM; in the assay on HCT116 MTAP null cells (HCT116-MTAP null, 144 h), 29 nM.

Consider `Cc1cc2cc(C(=O)N(Cc3ccc4[nH]c(=O)[nH]c4c3)Cc3ccncc3F)ccc2nc1N` [Example 588, 2-amino-N-((3-fluoropyridin-4-yl)methyl)-3-methyl-N-((2-oxo-2,3-dihydro-1H-benzo [d]imidazol-5-yl)methyl)quinoline-6-carboxamide], for which the half-maximal inhibitory concentration (IC50) is above 1000 nM with HCT116 WT cells (Homo sapiens, HCT-116, 144 h) and 760 nM in the assay with HCT116 MTAP null cells (HCT116-MTAP null, 144 h).

For the molecule `Cc1cc2cc(C(=O)N(Cc3ccc(N4CCCCC4)cc3)Cc3ccnc4[nH]ccc34)ccc2nc1N` [Example 563, 2-amino-3-methyl-N-[[4-(1-piperidyl)phenyl]methyl]-N-(1H-pyrrolo [2,3-b]pyridin-4-ylmethyl)quinoline-6-carboxamide], the concentration for half-maximal inhibition (IC50) in the assay on HCT116 WT cells (Homo sapiens, HCT-116, 144 h) was above 1000 nM; in the assay with HCT116 MTAP null cells (HCT116-MTAP null, 144 h) it was 165 nM.

Consider `C[C@H](c1ncccn1)N(Cc1ccc(Cl)nn1)C(=O)c1ccc2nc(N)c(Br)cc2c1` [Example 773, (R)-2-amino-3-bromo-N-((6-chloropyridazin-3-yl)methyl)-N-(1-(pyrimidin-2-yl)ethyl)quinoline-6-carboxamide], for which the half-maximal inhibitory concentration (IC50) in the assay on HCT116 WT cells (Homo sapiens, HCT-116, 144 h) is above 10000 nM; with HCT116 MTAP null cells (HCT116-MTAP null, 144 h), 304 nM.

Turning to `Cc1cc2cc(C(=O)N(Cc3ccc(C(F)(F)F)cn3)CC(C)C)ccc2nc1N` [Example 300, 2-amino-N-isobutyl-3-methyl-N-((5-(trifluoromethyl)pyridin-2-yl)methyl)quinoline-6-carboxamide], the IC50 was found to be 5300 nM with HCT116 WT cells (Homo sapiens, HCT-116, 144 h) and 317 nM with HCT116 MTAP null cells (144 h).

As for `Cc1cc2cc(C(=O)N(Cc3ccc(C(F)(F)F)cn3)C(c3ncccn3)C(C)C)ccc2nc1N` (centres unmarked) [Example 805, 2-amino-3-methyl-N-(2-methyl-1-(pyrimidin-2-yl)propyl)-N-((5-(trifluoromethyl)pyridin-2-yl)methyl)quinoline-6-carboxamide], the IC50 with HCT116 WT cells (Homo sapiens, HCT-116, 144 h) came to 2000 nM; with HCT116 MTAP null cells (HCT116-MTAP null, 144 h), 144 nM.

For `COc1ccc(CN(C(=O)c2ccc3nc(N)c(Br)cc3c2)[C@H](C)c2ncccc2F)nn1` [Example 736, 2-amino-3-bromo-N-((1R)-1-(3-fluoro-2-pyridinyl)ethyl)-N-((6-methoxy-3-pyridazinyl)methyl)-6-quinolinecarboxamide], the 50% inhibitory concentration (IC50) was determined as 6960 nM with HCT116 WT cells (Homo sapiens, HCT-116, 144 h) and 151 nM in the assay on HCT116 MTAP null cells (HCT116-MTAP null, 144 h).

Turning to `C[C@H](c1ncccn1)N(Cc1cc(Cl)c(C#N)cn1)C(=O)c1ccc2nc(N)c(Br)cc2c1` [Example 745, (R)-2-amino-3-bromo-N-((4-chloro-5-cyanopyridin-2-yl)methyl)-N-(1-(pyrimidin-2-yl)ethyl)quinoline-6-carboxamide], the IC50 in the assay with HCT116 WT cells (Homo sapiens, HCT-116, 144 h) came to 1240 nM; in the assay on HCT116 MTAP null cells (HCT116-MTAP null, 144 h), 223 nM.

Turning to `COc1ccc(CN(C(=O)c2ccc3nc(N)c(C)cc3c2)[C@H](C)c2ncccn2)cn1` (single isomer, unassigned) [Example 786], the IC50 was above 10000 nM in the assay with HCT116 WT cells (Homo sapiens, HCT-116, 144 h) and 322 nM with HCT116 MTAP null cells (HCT116-MTAP null, 144 h).
